Tested on: 435261-313-R-J1-PDC complex spheroid viability
Assay: Anticancer human tumor 435261-313-R-J1-PDC patient-derived colon adenocarcinoma cell line growth inhibition [GQUAD]
Conditions: for IC50: curve of first compound; for viability, T/C: stronger effect = lower value; active = viability on the fitted dose curve at most 10% of control; inactive = the rest
Method in brief: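 Tumor cells were grown as complex spheroids with HUVEC endothelial cells and mesenchymal stem cells as stroma. G-quadruplex stabilizers were combined with targeted agents over half-log dilutions from near the clinical Cmax, or from 10 microM.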

[1] = second compound 0.0316 µM, first compound 0.0316 µM
[2] = second compound 0.0316 µM, first compound 0.1 µM
[3] = second compound 0.0316 µM, first compound 0.316 µM
[4] = second compound 0.0316 µM, first compound 1 µM
[5] = second compound 0.0316 µM, first compound 3.16 µM
[6] = second compound 0.0316 µM, first compound 10 µM
[7] = second compound 0.1 µM, first compound 0.0316 µM
[8] = second compound 0.1 µM, first compound 0.1 µM
[9] = second compound 0.1 µM, first compound 0.316 µM
[10] = second compound 0.1 µM, first compound 1 µM
[11] = second compound 0.1 µM, first compound 3.16 µM
[12] = second compound 0.1 µM, first compound 10 µM
[13] = second compound 0.316 µM, first compound 0.0316 µM
[14] = second compound 0.316 µM, first compound 0.1 µM
[15] = second compound 0.316 µM, first compound 0.316 µM
[16] = second compound 0.316 µM, first compound 1 µM
[17] = second compound 0.316 µM, first compound 3.16 µM
[18] = second compound 0.316 µM, first compound 10 µM
[19] = second compound 1 µM, first compound 0.0316 µM
[20] = second compound 1 µM, first compound 0.1 µM
[21] = second compound 1 µM, first compound 0.316 µM
[22] = second compound 1 µM, first compound 1 µM
[23] = second compound 1 µM, first compound 3.16 µM
[24] = second compound 1 µM, first compound 10 µM
[25] = second compound 3.16 µM, first compound 0.0316 µM
[26] = second compound 3.16 µM, first compound 0.1 µM
[27] = second compound 3.16 µM, first compound 0.316 µM
[28] = second compound 3.16 µM, first compound 1 µM
[29] = second compound 3.16 µM, first compound 3.16 µM
[30] = second compound 3.16 µM, first compound 10 µM
[31] = second compound 10 µM, first compound 0.0316 µM
[32] = second compound 10 µM, first compound 0.1 µM
[33] = second compound 10 µM, first compound 0.316 µM
[34] = second compound 10 µM, first compound 1 µM
[35] = second compound 10 µM, first compound 3.16 µM
[36] = second compound 10 µM, first compound 10 µM
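Note: spheroids exposed to the agents for seven days before readout.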
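Throughout, for viability, T/C: percent of vehicle control viability with DMSO wells as 100%.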

C#Cc1c(F)ccc2cc(O)cc(-c3ncc4c(N5CC6CCC(C5)N6)nc(OCC56CCCN5CC(F)C6)nc4c3F)c12 (stereo not given) + Cc1[nH]c2ccc(F)cc2c1-c1nc2c3cccnc3c3ncccc3c2[nH]1
< 31.6 nM: IC50 (second compound 3.16 µM) | IC50 (second compound 10 µM)
> 10000 nM: IC50 (second compound 0.0316 µM) | IC50 (second compound 0.1 µM) | IC50 (second compound 0.316 µM) | IC50 (second compound 1 µM)
active: viability, T/C [30] 0.2%
inactive: viability, T/C [1] 94.8% | viability, T/C [2] 106% | viability, T/C [3] 88.9% | viability, T/C [4] 104% | viability, T/C [5] 65.6% | viability, T/C [6] 58.9% | viability, T/C [7] 107% | viability, T/C [8] 85.4% | viability, T/C [9] 104% | viability, T/C [10] 62% | viability, T/C [11] 61.1% | viability, T/C [12] 57% | viability, T/C [13] 64.5% | viability, T/C [14] 111% | viability, T/C [15] 75.8% | viability, T/C [16] 75.4% | viability, T/C [17] 84.7% | viability, T/C [18] 74.4% | viability, T/C [19] 61.8% | viability, T/C [20] 55.1% | viability, T/C [21] 85.6% | viability, T/C [22] 66.9% | viability, T/C [23] 63.5% | viability, T/C [24] 46.3% | viability, T/C [25] 51.2% | viability, T/C [26] 42.9% | viability, T/C [27] 39.6% | viability, T/C [28] 28.4% | viability, T/C [29] 45% | viability, T/C [31] 24.2% | viability, T/C [32] 28.3% | viability, T/C [33] 28.4% | viability, T/C [34] 37.1% | viability, T/C [35] 29% | viability, T/C [36] 0.26%

CC(=O)O[C@H]1C(=O)[C@@]2(C)[C@H]([C@H](OC(=O)c3ccccc3)[C@]3(O)C[C@H](OC(=O)[C@H](O)[C@@H](NC(=O)c4ccccc4)c4ccccc4)C(C)=C1C3(C)C)[C@]1(OC(C)=O)CO[C@@H]1C[C@@H]2O + Cc1[nH]c2ccc(F)cc2c1-c1nc2c3cccnc3c3ncccc3c2[nH]1
inactive: viability, T/C [1] 67.5% | viability, T/C [2] 71.4% | viability, T/C [3] 74.7% | viability, T/C [4] 65.8% | viability, T/C [5] 63.8% | viability, T/C [6] 76.8% | viability, T/C [7] 83.2% | viability, T/C [8] 78.5% | viability, T/C [9] 78.1% | viability, T/C [10] 57.8% | viability, T/C [11] 69.2% | viability, T/C [12] 71% | viability, T/C [13] 63.4% | viability, T/C [14] 66.2% | viability, T/C [15] 52.5% | viability, T/C [16] 48.9% | viability, T/C [17] 51% | viability, T/C [18] 60% | viability, T/C [19] 41.5% | viability, T/C [20] 48.1% | viability, T/C [21] 53% | viability, T/C [22] 46.4% | viability, T/C [23] 47.2% | viability, T/C [24] 42.2% | viability, T/C [25] 41.6% | viability, T/C [26] 40.8% | viability, T/C [27] 40.1% | viability, T/C [28] 24.6% | viability, T/C [29] 29% | viability, T/C [30] 29.1% | viability, T/C [31] 25.7% | viability, T/C [32] 32.3% | viability, T/C [33] 26.7% | viability, T/C [34] 24.4% | viability, T/C [35] 21.9% | viability, T/C [36] 28%
< 31.6 nM: IC50 (second compound 1 µM) | IC50 (second compound 3.16 µM) | IC50 (second compound 10 µM)
> 10000 nM: IC50 (second compound 0.0316 µM) | IC50 (second compound 0.1 µM) | IC50 (second compound 0.316 µM)

CCCS(=O)(=O)Nc1ccc(F)c(C(=O)c2c[nH]c3ncc(-c4ccc(Cl)cc4)cc23)c1F + Cc1[nH]c2ccc(F)cc2c1-c1nc2c3cccnc3c3ncccc3c2[nH]1
5200 nM: IC50 (second compound 0.0316 µM)
4060 nM: IC50 (second compound 0.316 µM)
3250 nM: IC50 (second compound 1 µM)
inactive: viability, T/C [1] 77.2% | viability, T/C [2] 87.3% | viability, T/C [3] 109% | viability, T/C [4] 115% | viability, T/C [5] 78.5% | viability, T/C [6] 12.7% | viability, T/C [7] 60.5% | viability, T/C [8] 105% | viability, T/C [9] 116% | viability, T/C [10] 70.9% | viability, T/C [11] 62.2% | viability, T/C [12] 15.5% | viability, T/C [13] 66.5% | viability, T/C [14] 73.7% | viability, T/C [15] 76.7% | viability, T/C [16] 70% | viability, T/C [17] 59.9% | viability, T/C [18] 14% | viability, T/C [19] 41.2% | viability, T/C [20] 70% | viability, T/C [21] 40.5% | viability, T/C [22] 55.5% | viability, T/C [23] 50.8% | viability, T/C [24] 11.7% | viability, T/C [25] 30.2% | viability, T/C [26] 29.2% | viability, T/C [27] 24.5% | viability, T/C [28] 19.6% | viability, T/C [29] 28.4% | viability, T/C [30] 7.37% | viability, T/C [31] 27.2% | viability, T/C [32] 23% | viability, T/C [33] 24.6% | viability, T/C [34] 27.1% | viability, T/C [35] 26.1% | viability, T/C [36] 8.52%
< 31.6 nM: IC50 (second compound 3.16 µM) | IC50 (second compound 10 µM)
4080 nM: IC50 (second compound 0.1 µM)

Nc1ccn(C2OC(CO)C(O)C2(F)F)c(=O)n1 (stereo not given) + Cc1[nH]c2ccc(F)cc2c1-c1nc2c3cccnc3c3ncccc3c2[nH]1
161 nM: IC50 (second compound 0.0316 µM)
< 31.6 nM: IC50 (second compound 0.1 µM) | IC50 (second compound 0.316 µM) | IC50 (second compound 1 µM) | IC50 (second compound 3.16 µM) | IC50 (second compound 10 µM)
inactive: viability, T/C [1] 74% | viability, T/C [2] 50.2% | viability, T/C [3] 47.9% | viability, T/C [4] 42% | viability, T/C [5] 57.9% | viability, T/C [6] 51.1% | viability, T/C [7] 53.2% | viability, T/C [8] 45.5% | viability, T/C [9] 42.1% | viability, T/C [10] 49.5% | viability, T/C [11] 50.3% | viability, T/C [12] 51.9% | viability, T/C [13] 39.5% | viability, T/C [14] 50% | viability, T/C [15] 46.3% | viability, T/C [16] 44% | viability, T/C [17] 48.1% | viability, T/C [18] 33.1% | viability, T/C [19] 50.4% | viability, T/C [20] 40.6% | viability, T/C [21] 42.1% | viability, T/C [22] 34.7% | viability, T/C [23] 41.8% | viability, T/C [24] 35.5% | viability, T/C [25] 26.7% | viability, T/C [26] 31.9% | viability, T/C [27] 25.5% | viability, T/C [28] 24.7% | viability, T/C [29] 28.9% | viability, T/C [30] 25.9% | viability, T/C [31] 16.3% | viability, T/C [32] 19.1% | viability, T/C [33] 18% | viability, T/C [34] 20.2% | viability, T/C [35] 15.7% | viability, T/C [36] 18.7%

O=c1[nH]cc(F)c(=O)[nH]1 + Cc1[nH]c2ccc(F)cc2c1-c1nc2c3cccnc3c3ncccc3c2[nH]1
> 10000 nM: IC50 (second compound 0.0316 µM) | IC50 (second compound 0.1 µM) | IC50 (second compound 0.316 µM)
inactive: viability, T/C [1] 112% | viability, T/C [2] 72.3% | viability, T/C [3] 80.1% | viability, T/C [4] 74.5% | viability, T/C [5] 66.2% | viability, T/C [6] 64.9% | viability, T/C [7] 94.7% | viability, T/C [8] 84.2% | viability, T/C [9] 62% | viability, T/C [10] 72.1% | viability, T/C [11] 64.1% | viability, T/C [12] 61.3% | viability, T/C [13] 78.5% | viability, T/C [14] 66.5% | viability, T/C [15] 52.8% | viability, T/C [16] 65.3% | viability, T/C [17] 49.1% | viability, T/C [18] 56% | viability, T/C [19] 53.2% | viability, T/C [20] 75% | viability, T/C [21] 51.9% | viability, T/C [22] 47.9% | viability, T/C [23] 50.2% | viability, T/C [24] 40.6% | viability, T/C [25] 34.2% | viability, T/C [26] 27.4% | viability, T/C [27] 25.1% | viability, T/C [28] 26.7% | viability, T/C [29] 24.1% | viability, T/C [30] 27.7% | viability, T/C [31] 17.9% | viability, T/C [32] 25.7% | viability, T/C [33] 19% | viability, T/C [34] 19.3% | viability, T/C [35] 16.4% | viability, T/C [36] 21.3%
464 nM: IC50 (second compound 1 µM)
< 31.6 nM: IC50 (second compound 3.16 µM) | IC50 (second compound 10 µM)
